Experimental data as given in ChEMBL document CHEMBL1641384, “QSAR of adenosine receptor antagonists: Exploring physicochemical requirements for binding of pyrazolo[4,3-e]-1,2,4-triazolo[1,5-c]pyrimidine derivatives with human adenosine A(3) receptor subtype” (Bioorg Med Chem Lett, 2011).

Target: T1, Adenosine receptor A3 (Homo sapiens, UniProt P0DMS8)
T1 sequence (P0DMS8 whole entry): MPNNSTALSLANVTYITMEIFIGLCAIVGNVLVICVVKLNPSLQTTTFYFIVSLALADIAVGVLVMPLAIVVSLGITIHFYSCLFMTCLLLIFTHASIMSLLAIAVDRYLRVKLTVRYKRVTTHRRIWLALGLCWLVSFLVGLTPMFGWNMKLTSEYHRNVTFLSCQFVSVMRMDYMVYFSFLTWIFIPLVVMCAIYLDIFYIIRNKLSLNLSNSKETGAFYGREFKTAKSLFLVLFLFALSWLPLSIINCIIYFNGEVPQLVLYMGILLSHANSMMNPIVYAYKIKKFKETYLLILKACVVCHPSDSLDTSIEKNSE
Test: Displacement of [3H]MRE3008-F20 from human adenosine A3 receptor expressed in CHO cells after 120 mins
Format: cell-based

Ki [nM] | Compound
407 | CCn1cc2c(nc(N)n3nc(-c4ccco4)nc23)n1
1.58 | CCCn1cc2c(nc(NC(=O)Nc3cccc(Cl)c3)n3nc(-c4ccco4)nc23)n1
0.912 | CCn1cc2c(nc(NC(=O)Nc3cccc(Cl)c3)n3nc(-c4ccco4)nc23)n1
0.24 | Cn1cc2c(nc(NC(=O)Nc3ccc4c(c3)OCO4)n3nc(-c4ccco4)nc23)n1
0.269 | CCn1cc2c(nc(NC(=O)Nc3ccc4c(c3)OCO4)n3nc(-c4ccco4)nc23)n1
0.302 | CCCn1cc2c(nc(NC(=O)Nc3ccc4c(c3)OCO4)n3nc(-c4ccco4)nc23)n1
0.501 | CCCCn1cc2c(nc(NC(=O)Nc3ccc4c(c3)OCO4)n3nc(-c4ccco4)nc23)n1
4.07 | CCCCCCCCn1cc2c(nc(NC(=O)Nc3ccc(C)cc3)n3nc(-c4ccco4)nc23)n1
331 | CCCn1cc2c(nc(N)n3nc(-c4ccco4)nc23)n1
0.794 | CCn1cc2c(nc(NC(=O)Nc3ccc(OC)cc3)n3nc(-c4ccco4)nc23)n1
